Source: PMC10486429, “Investigations Using Albumin Binders to Modify the Tissue Distribution Profile of Radiopharmaceuticals Exemplified with Folate Radioconjugates” (Cancers, 2023)

system: FR-positive KB tumor cells; assay: Uptake and internalization of 177Lu-RedFols in KB tumor cells; type: cell-based, human; conditions: 4 h incubation, percent of total added activity
Procedure: The KB cells (a human cervical carcinoma cell line, subclone of HeLa cells, ACC-136) were purchased from the German Collection of Microorganisms and Cell Cultures (DSMZ, Germany). The tumor cells were cultured in folate-deficient RPMI medium (FFRPMI, Cell Culture Technologies GmbH, Gravesano, Switzerland) supplemented with 10% fetal calf serum, […] and antibiotics.
The experiments to investigate the uptake and internalization of ^177Lu-RedFols (50 MBq/nmol) were performed according to a previously established protocol (Supplementary Materials Section S9). The results were presented as a percentage of total added activity and listed as the average ± SD of 3–6 independent experiments, each performed in triplicates. The data were analyzed for statistical significance using a one-way ANOVA with Tukey’s post-comparison test (GraphPad Prism software version 8) considering a p-value < 0.05 as statistically significant. […]
S8. Radiolabeling and Radiolytic Stability of Folate Radioconjugates
Purpose: RedFols were labeled with lutetium-177 and assessed for their in vitro sta- […]
Methods: Folate conjugates were dissolved in Milli-Q water containing 4–6% sodium ascorbate (0.5 M) to obtain a final concentration of 1 mM. Radiolabeling of the RedFols with lutetium-177 (no-carrier-added, in 0.04 M HCl; ITM Medical Isotopes GmbH, Mu-nich, Germany) was performed using a mixture of sodium acetate (0.5 M) and HCl (0.05 M) at pH ~4.5 in the presence of L-ascorbic acid (6 mg) as previously reported for […]
RedFol-1 (6R and 6S). […]
S9. Uptake and Internalization of 177Lu-RedFols
Purpose: Uptake and internalization studies were performed with all folate radiocon-jugates using folate receptor (FR)-positive KB tumor cells.
Methods: The experiments were performed as previously reported. KB tumor cells (human cervical cancer cell line, ACC-136) were seeded into poly-lysine-coated 12-well plates (0.5 × 10^6 cells in 2 mL per well) using folate-free RPMI (FFRPMI) medium supplemented with 10% fetal calf serum, glutamine and antibiotics. The tumor cells were incubated overnight to allow adhesion and growth at 37 °C and 5% CO2. After removal of the supernatant, the KB cells were rinsed with PBS prior to the addition of FFRPMI me-dium without supplements (975 µL/well). The folate radioconjugates (50 MBq/nmol) were added to each well in a volume of 25 µL (0.75 pmol, 38 kBq). In some wells, KB tumor cells were co-incubated with excess folic acid (100 µM) to block the FRs on the cell surface.
After incubation of the well plates for 2 h or 4 h at 37 °C and 5% CO2, the KB tumor cells were rinsed three times with ice-cold PBS to determine the total uptake of the folate radi-oconjugates. In order to assess the internalized fraction, a stripping buffer (aqueous solu-tion of 0.1 M acetic acid and 0.15 M NaCl, pH 3) was applied to release FR-bound folate radioconjugates from the cell surface. Cell samples were lysed by addition of NaOH solu-tion (1 M, 1 mL) to each well. The cell lysates were counted for activity in a γ-counter (Perkin Elmer, Wallac Wizard 1480, Waltham, MA, USA). The protein concentrations of […]
each sample were determined using a Micro BCA Protein Assay kit (Pierce, Thermo Sci-entific) in order to standardize the measured activity to the average content of protein in […]
Results: The results are presented in the main article and in Figure S1.
Figure S1. Uptake and internalization of folate radioconjugates in KB tumor cells after an incubation period of 2 h and 4 h at 37°C. (A) Uptake of the folate radioconjugates in KB tumor cells. (B) Inter-nalized fraction of folate radioconjugates in KB tumor cells. The data are expressed as average ± SD […]
S10. FR-binding Affinity (KD Values) of 177Lu-RedFols
Purpose: The folate radioconjugates were investigated in vitro in order to determine their FR-binding affinities (KD values).
Methods: The determination of the KD values was performed as previously reported […]

CN1c2c(nc(N)[nH]c2=O)NCC1CNc1ccc(C(=O)NC(CCC(=O)NC(CCCCNC(=O)CN2CCN(CC(=O)[O-])CCN(CC(=O)[O-])CCN(CC(=O)[O-])CC2)C(=O)NC(CCCCNC(=O)CCCc2ccc(I)cc2)C(=O)O)C(=O)O)cc1.[177Lu+3] (stereo not drawn) [[^177Lu]Lu-6S-RedFol-1] and CN1c2c(nc(N)[nH]c2=O)NCC1CNc1ccc(C(=O)NC(CCC(=O)NC(CCCCNC(=O)CN2CCN(CC(=O)[O-])CCN(CC(=O)[O-])CCN(CC(=O)[O-])CC2)C(=O)NC(CCCCNC(=O)c2ccc(CNC(=O)CCCc3ccc(I)cc3)cc2)C(=O)O)C(=O)O)cc1.[177Lu+3] (stereo not drawn) [[^177Lu]Lu-6S-RedFol-3] are within error of each other in “Cell-Internalized Fraction” value: 18 ± 1% for the first, 23 ± 8% for the second.

CN1c2c(nc(N)[nH]c2=O)NC[C@H]1CNc1ccc(C(=O)N[C@@H](CCC(=O)N[C@@H](CCCCNC(=O)CN2CCN(CC(=O)O)CCN(CC(=O)O)CCN(CC(=O)O)CC2)C(=O)N[C@@H](CCCCNC(=O)c2ccc(CNC(=O)CCCc3ccc(I)cc3)cc2)C(=O)O)C(=O)O)cc1 [[^177Lu]Lu-6R-RedFol-3, metal not drawn] and CN1c2c(nc(N)[nH]c2=O)NC[C@H]1CNc1ccc(C(=O)N[C@@H](CCC(=O)N[C@@H](CCCCNC(=O)CN2CCN(CC(=O)O)CCN(CC(=O)O)CCN(CC(=O)O)CC2)C(=O)N[C@@H](CCCCNC(=O)c2ccc(CNC(=O)CCCCc3ccc(I)cc3)cc2)C(=O)O)C(=O)O)cc1 [[^177Lu]Lu-6R-RedFol-25, metal not drawn] are within error of each other in “Cell-Internalized Fraction” value: 19 ± 8% for the first, 17 ± 3% for the second.

Compared with CN1c2c(nc(N)[nH]c2=O)NCC1CNc1ccc(C(=O)NC(CCC(=O)NC(CCCCNC(=O)CN2CCN(CC(=O)[O-])CCN(CC(=O)[O-])CCN(CC(=O)[O-])CC2)C(=O)NC(CCCCNC(=O)c2ccc(CNC(=O)CCCCc3ccc(I)cc3)cc2)C(=O)O)C(=O)O)cc1.[177Lu+3] (stereo not drawn) [[^177Lu]Lu-6S-RedFol-25], CN1c2c(nc(N)[nH]c2=O)NC[C@H]1CNc1ccc(C(=O)N[C@@H](CCC(=O)N[C@@H](CCCCNC(=O)CN2CCN(CC(=O)O)CCN(CC(=O)O)CCN(CC(=O)O)CC2)C(=O)N[C@@H](CCCCNC(=O)CCCCc2ccc(I)cc2)C(=O)O)C(=O)O)cc1 [[^177Lu]Lu-6R-RedFol-24, metal not drawn] is lower in “Cell-Internalized Fraction” value: 31 ± 3% for the first, 15 ± 1% for the second.

With CN1c2c(nc(N)[nH]c2=O)NC[C@H]1CNc1ccc(C(=O)N[C@@H](CCC(=O)N[C@@H](CCCCNC(=O)CN2CCN(CC(=O)O)CCN(CC(=O)O)CCN(CC(=O)O)CC2)C(=O)N[C@@H](CCCCNC(=O)CCCc2ccc(I)cc2)C(=O)O)C(=O)O)cc1 [[^177Lu]Lu-6R-RedFol-1, metal not drawn] the “Cell-Internalized Fraction” value was 12 ± 2%.

First: CN1c2c(nc(N)[nH]c2=O)NCC1CNc1ccc(C(=O)NC(CCC(=O)NC(CCCCNC(=O)CN2CCN(CC(=O)[O-])CCN(CC(=O)[O-])CCN(CC(=O)[O-])CC2)C(=O)NC(CCCCNC(=O)CCCc2ccc(I)cc2)C(=O)O)C(=O)O)cc1.[177Lu+3] (stereo not drawn) [[^177Lu]Lu-6S-RedFol-1]
Second: CN1c2c(nc(N)[nH]c2=O)NCC1CNc1ccc(C(=O)NC(CCC(=O)NC(CCCCNC(=O)CN2CCN(CC(=O)[O-])CCN(CC(=O)[O-])CCN(CC(=O)[O-])CC2)C(=O)NC(CCCCNC(=O)c2ccc(CNC(=O)CCCc3ccc(I)cc3)cc2)C(=O)O)C(=O)O)cc1.[177Lu+3] (stereo not drawn) [[^177Lu]Lu-6S-RedFol-3]
The “Total Cell Uptake” value of the first is higher: 62 ± 6% for the first, 44 ± 11% for the second.

CN1c2c(nc(N)[nH]c2=O)NC[C@H]1CNc1ccc(C(=O)N[C@@H](CCC(=O)N[C@@H](CCCCNC(=O)CN2CCN(CC(=O)O)CCN(CC(=O)O)CCN(CC(=O)O)CC2)C(=O)N[C@@H](CCCCNC(=O)c2ccc(CNC(=O)CCCc3ccc(I)cc3)cc2)C(=O)O)C(=O)O)cc1 [[^177Lu]Lu-6R-RedFol-3, metal not drawn] and CN1c2c(nc(N)[nH]c2=O)NC[C@H]1CNc1ccc(C(=O)N[C@@H](CCC(=O)N[C@@H](CCCCNC(=O)CN2CCN(CC(=O)O)CCN(CC(=O)O)CCN(CC(=O)O)CC2)C(=O)N[C@@H](CCCCNC(=O)c2ccc(CNC(=O)CCCCc3ccc(I)cc3)cc2)C(=O)O)C(=O)O)cc1 [[^177Lu]Lu-6R-RedFol-25, metal not drawn] are within error of each other in “Total Cell Uptake” value: 39 ± 14% for the first, 29 ± 8% for the second.

Going from CN1c2c(nc(N)[nH]c2=O)NCC1CNc1ccc(C(=O)NC(CCC(=O)NC(CCCCNC(=O)CN2CCN(CC(=O)[O-])CCN(CC(=O)[O-])CCN(CC(=O)[O-])CC2)C(=O)NC(CCCCNC(=O)c2ccc(CNC(=O)CCCCc3ccc(I)cc3)cc2)C(=O)O)C(=O)O)cc1.[177Lu+3] (stereo not drawn) [[^177Lu]Lu-6S-RedFol-25] to CN1c2c(nc(N)[nH]c2=O)NC[C@H]1CNc1ccc(C(=O)N[C@@H](CCC(=O)N[C@@H](CCCCNC(=O)CN2CCN(CC(=O)O)CCN(CC(=O)O)CCN(CC(=O)O)CC2)C(=O)N[C@@H](CCCCNC(=O)CCCCc2ccc(I)cc2)C(=O)O)C(=O)O)cc1 [[^177Lu]Lu-6R-RedFol-24, metal not drawn], the “Total Cell Uptake” value falls from 55 ± 5% to 40 ± 6%.

CN1c2c(nc(N)[nH]c2=O)NC[C@H]1CNc1ccc(C(=O)N[C@@H](CCC(=O)N[C@@H](CCCCNC(=O)CN2CCN(CC(=O)O)CCN(CC(=O)O)CCN(CC(=O)O)CC2)C(=O)N[C@@H](CCCCNC(=O)CCCc2ccc(I)cc2)C(=O)O)C(=O)O)cc1 [[^177Lu]Lu-6R-RedFol-1, metal not drawn] was tested, and the “Total Cell Uptake” value was 49 ± 11%.
